From patent US20240315993A1, “ANTIPARASITIC COMPOUNDS” (Intervet Inc., priority 2021, published 2024)

Columns and labels:
[1] = tested on: juvenile soft ticks (Ornithodoros moubata); assay: Guinea pig - efficacy against argaside tick; format: in vivo
Protocol: (§1) Guinea pigs were locally co-infested (using an infestation device on a shaved skin area) with juvenile soft ticks (Ornithodoros moubata) and bed bugs (Cimex lectularius) before the treatment day (Day 0) to provide a baseline-negative control value. Guinea pigs were treated orally (by gavage) or subcutaneously at a dose of 5 mg/kg bodyweight of a test compound in a formulation of 10% DMF/Emulsifier+90% Aqua ad injectabilia.
(§2) Repeated local infestations with both parasites were performed at different time points after treatment. Within approximately 45 min after each infestation ten engorged ticks and ten engorged bed bugs were • collected and the percentage of dead and damaged parasites per species were • assessed approximately 24 hours following collection. The efficacy was • calculated as % of inhibition ‘killed+damaged’ parasites in a treated group in comparison to the baseline-negative control (using a modified Schneider Orelli's formula).
(§3) Results: Activity of the test compounds at different evaluation time-points (≥80% inhibition were found active): […]

[2] = tested on: bed bugs (Cimex lectularius); assay: Guinea pig - efficacy against bed bug; format: in vivo
Protocol: as §1, §2, §3

[3] = tested on: Cabbage Looper (Trichoplusia ni); settings: Cabbage Looper second instar larvae, 128-well diet tray, 50 μg/cm^2, five to seven days, average of eight wells; cited from earlier work
[4] = tested on: Yellow Fever Mosquito (Aedes aegypti); settings: Aedes aegypti larvae about 1 day old, 96-well plate, scored after 3 days; cited from earlier work
[5] = 5 mg/kg subcutaneous, after 7 days
[6] = 5 mg/kg subcutaneous, after 10 days
[7] = 5 mg/kg subcutaneous, after 14 days
[8] = 5 mg/kg subcutaneous, after 17 days
[9] = 5 mg/kg subcutaneous, after 21 days
[10] = 5 mg/kg subcutaneous, after 24 days
[11] = 5 mg/kg subcutaneous, after 28 days
[12] = 5 mg/kg subcutaneous, after 31 days
[13] = 5 mg/kg, for at least one week, both administration routes

O=C(Nc1ncc(F)cc1F)c1cc(NC(=O)C2C(c3cc(Cl)cc(C(F)(F)F)c3)C2(Cl)Cl)ccc1Cl (stereo not shown) [Compound 475]
100%: effective to control ticks [1, 13] | effective to control bed bugs [2, 13]
activity: activity against tick nymphs (≥80% inhibition, killed+damaged) ([1]; 5 mg/kg oral, after 7 days) | activity against tick nymphs (≥80% inhibition, killed+damaged) ([1]; 5 mg/kg oral, after 10 days) | activity against tick nymphs (≥80% inhibition, killed+damaged) ([1]; 5 mg/kg oral, after 14 days) | activity against tick nymphs (≥80% inhibition, killed+damaged) ([1]; 5 mg/kg oral, after 17 days) | activity against tick nymphs (≥80% inhibition, killed+damaged) [1, 5] | activity against tick nymphs (≥80% inhibition, killed+damaged) [1, 6] | activity against tick nymphs (≥80% inhibition, killed+damaged) [1, 7] | activity against tick nymphs (≥80% inhibition, killed+damaged) [1, 8] | activity against tick nymphs (≥80% inhibition, killed+damaged) [1, 9] | activity against tick nymphs (≥80% inhibition, killed+damaged) [1, 10] | activity against tick nymphs (≥80% inhibition, killed+damaged) [1, 11] | activity against tick nymphs (≥80% inhibition, killed+damaged) [1, 12] | activity against tick nymphs (≥80% inhibition, killed+damaged) ([1]; 5 mg/kg subcutaneous, after 35 days) | activity against bed bugs (≥80% inhibition, killed+damaged) ([2]; 5 mg/kg oral, after 7 days) | activity against bed bugs (≥80% inhibition, killed+damaged) ([2]; 5 mg/kg oral, after 10 days) | activity against bed bugs (≥80% inhibition, killed+damaged) ([2]; 5 mg/kg oral, after 14 days) | activity against bed bugs (≥80% inhibition, killed+damaged) ([2]; 5 mg/kg oral, after 17 days) | activity against bed bugs (≥80% inhibition, killed+damaged) ([2]; 5 mg/kg oral, after 21 days) | activity against bed bugs (≥80% inhibition, killed+damaged) ([2]; 5 mg/kg oral, after 24 days) | activity against bed bugs (≥80% inhibition, killed+damaged) ([2]; 5 mg/kg oral, after 28 days) | activity against bed bugs (≥80% inhibition, killed+damaged) [2, 5] | activity against bed bugs (≥80% inhibition, killed+damaged) [2, 6] | activity against bed bugs (≥80% inhibition, killed+damaged) [2, 7] | activity against bed bugs (≥80% inhibition, killed+damaged) [2, 8] | activity against bed bugs (≥80% inhibition, killed+damaged) [2, 9] | activity against bed bugs (≥80% inhibition, killed+damaged) [2, 10] | activity against bed bugs (≥80% inhibition, killed+damaged) [2, 11] | activity against bed bugs (≥80% inhibition, killed+damaged) [2, 12]
immediate activity: activity against tick nymphs (≥80% inhibition, killed+damaged) ([1]; 5 mg/kg oral, Day 0) | activity against tick nymphs (≥80% inhibition, killed+damaged) ([1]; 5 mg/kg subcutaneous, Day 0) | activity against bed bugs (≥80% inhibition, killed+damaged) ([2]; 5 mg/kg oral, Day 0) | activity against bed bugs (≥80% inhibition, killed+damaged) ([2]; 5 mg/kg subcutaneous, Day 0)

Cc1cc(N)ccc1NC(=O)c1cc(NC(=O)C2C(c3ccc(F)c(Cl)c3)C2(Cl)Cl)ccc1Cl (stereo not shown) [c50]
A (80-100): Test C: Bioassay on Yellow Fever Mosquito, mortality rating [4]
A (50-100): Test B: Bioassay on CL, percent mortality rating [3]

Cc1cc(N)ccc1NC(=O)c1cc(NC(=O)C2C(c3cc(Cl)cc(Cl)c3)C2(Cl)Cl)ccc1Cl (stereo not shown) [c82]
A (80-100): Test C: Bioassay on Yellow Fever Mosquito, mortality rating [4]
A (50-100): Test B: Bioassay on CL, percent mortality rating [3]

Cc1cc(N)ccc1NC(=O)c1cc(NC(=O)C2C(c3cc(Cl)cc(Cl)c3)C2(Cl)Cl)ccc1Cl (stereo not shown) [c83]
A (50-100): Test B: Bioassay on CL, percent mortality rating [3]
A (80-100): Test C: Bioassay on Yellow Fever Mosquito, mortality rating [4]
